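96-well plates; 48 h exposure; 5 concentrations. Endpoints by linear interpolation between flanking doses. Not reached: highest tested concentration assigned. The concentration for 50% growth inhibition is given as GI50. TGI: total growth inhibition.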
Legend:
Test in all cases: NCI-60 cell line screen, 48 h
LOX IMVI melanoma = tested on: LOX IMVI melanoma
NCI-H522 lung = tested on: NCI-H522 lung
HCT-116 colon = tested on: HCT-116 colon
OVCAR-4 ovarian = tested on: OVCAR-4 ovarian
NCI-H460 lung = tested on: NCI-H460 lung
SK-OV-3 ovarian = tested on: SK-OV-3 ovarian
786-0 renal = tested on: 786-0 renal
UACC-257 melanoma = tested on: UACC-257 melanoma
OVCAR-5 ovarian = tested on: OVCAR-5 ovarian
A549 NSCLC = tested on: A549 NSCLC
HS 578T breast = tested on: HS 578T breast
HL-60(TB) leukemia = tested on: HL-60(TB) leukemia
MDA-MB-231 breast = tested on: MDA-MB-231 breast
TK-10 renal = tested on: TK-10 renal
RXF 393 renal = tested on: RXF 393 renal
PC-3 prostate = tested on: PC-3 prostate
KM12 colon = tested on: KM12 colon
SK-MEL-2 melanoma = tested on: SK-MEL-2 melanoma
IGROV1 ovarian = tested on: IGROV1 ovarian
UO-31 renal = tested on: UO-31 renal
NCI-H226 lung = tested on: NCI-H226 lung
SNB-19 CNS = tested on: SNB-19 CNS
DU-145 prostate = tested on: DU-145 prostate
BT-549 breast = tested on: BT-549 breast
SF-295 CNS = tested on: SF-295 CNS
EKVX NSCLC = tested on: EKVX NSCLC
HCC-2998 colon = tested on: HCC-2998 colon
M14 melanoma = tested on: M14 melanoma
RPMI-8226 leukemia = tested on: RPMI-8226 leukemia
HOP-62 NSCLC = tested on: HOP-62 NSCLC
MDA-MB-435 = tested on: MDA-MB-435
NCI-H23 lung = tested on: NCI-H23 lung
OVCAR-8 ovarian = tested on: OVCAR-8 ovarian
SW-620 colon = tested on: SW-620 colon
HOP-92 NSCLC = tested on: HOP-92 NSCLC
OVCAR-3 ovarian = tested on: OVCAR-3 ovarian
SF-268 CNS = tested on: SF-268 CNS
SF-539 CNS = tested on: SF-539 CNS
K-562 leukemia = tested on: K-562 leukemia
UACC-62 melanoma = tested on: UACC-62 melanoma
SR leukemia = tested on: SR leukemia
COLO 205 colon = tested on: COLO 205 colon
NCI/ADR-RES ovarian = tested on: NCI/ADR-RES ovarian
MCF7 breast = tested on: MCF7 breast
CCRF-CEM leukemia = tested on: CCRF-CEM leukemia
A498 renal = tested on: A498 renal
ACHN renal = tested on: ACHN renal
CAKI-1 renal = tested on: CAKI-1 renal
SK-MEL-5 melanoma = tested on: SK-MEL-5 melanoma
SN12C renal = tested on: SN12C renal
U251 CNS = tested on: U251 CNS
SK-MEL-28 melanoma = tested on: SK-MEL-28 melanoma
HCT-15 colon = tested on: HCT-15 colon

Cc1cc(S(=O)(=O)Nc2nc3ccccc3s2)c(SCc2ccccc2)cc1Cl
GI50 (LOX IMVI melanoma): 12.1 µM
TGI (LOX IMVI melanoma): 24.5 µM
GI50 (NCI-H522 lung): 31.5 µM
TGI (NCI-H522 lung): > 100 µM
GI50 (HCT-116 colon): 15.1 µM
TGI (HCT-116 colon): 28.4 µM
GI50 (OVCAR-4 ovarian): 13.2 µM
TGI (OVCAR-4 ovarian): 51.8 µM
GI50 (NCI-H460 lung): 21.4 µM
TGI (NCI-H460 lung): > 100 µM
GI50 (SK-OV-3 ovarian): 32.4 µM
TGI (SK-OV-3 ovarian): 98.4 µM
GI50 (786-0 renal): 16.9 µM
TGI (786-0 renal): 32.1 µM
GI50 (UACC-257 melanoma): 18.3 µM
TGI (UACC-257 melanoma): 45.9 µM
GI50 (OVCAR-5 ovarian): 18.8 µM
TGI (OVCAR-5 ovarian): 36.7 µM
GI50 (A549 NSCLC): 13.9 µM
TGI (A549 NSCLC): 31.8 µM
GI50 (HS 578T breast): 20.2 µM
TGI (HS 578T breast): 62 µM
GI50 (HL-60(TB) leukemia): 17.3 µM
TGI (HL-60(TB) leukemia): 45.4 µM
GI50 (MDA-MB-231 breast): 16.9 µM
TGI (MDA-MB-231 breast): 37.7 µM
GI50 (TK-10 renal): 14.1 µM
TGI (TK-10 renal): 44.7 µM
GI50 (RXF 393 renal): 23.8 µM
TGI (RXF 393 renal): 49.7 µM
GI50 (PC-3 prostate): 13.5 µM
TGI (PC-3 prostate): 28.8 µM
GI50 (KM12 colon): 18.8 µM
TGI (KM12 colon): 61.9 µM
GI50 (SK-MEL-2 melanoma): 37.2 µM
TGI (SK-MEL-2 melanoma): > 100 µM
GI50 (IGROV1 ovarian): 27.4 µM
TGI (IGROV1 ovarian): 94.3 µM
GI50 (UO-31 renal): 19.4 µM
TGI (UO-31 renal): 45.9 µM
GI50 (NCI-H226 lung): 19.3 µM
TGI (NCI-H226 lung): 45.9 µM
GI50 (SNB-19 CNS): 28.2 µM
TGI (SNB-19 CNS): > 100 µM
GI50 (DU-145 prostate): 15.5 µM
TGI (DU-145 prostate): 36.9 µM
GI50 (BT-549 breast): 20.9 µM
TGI (BT-549 breast): 60.5 µM
GI50 (SF-295 CNS): 11 µM
TGI (SF-295 CNS): 32.4 µM
GI50 (EKVX NSCLC): 13.2 µM
TGI (EKVX NSCLC): 49.2 µM
GI50 (HCC-2998 colon): 13.8 µM
TGI (HCC-2998 colon): 26.7 µM
GI50 (M14 melanoma): 19.2 µM
TGI (M14 melanoma): 36.6 µM
GI50 (RPMI-8226 leukemia): 9.25 µM
TGI (RPMI-8226 leukemia): 37.2 µM
GI50 (HOP-62 NSCLC): 31.6 µM
TGI (HOP-62 NSCLC): > 100 µM
GI50 (MDA-MB-435): 15.7 µM
TGI (MDA-MB-435): 31.7 µM
GI50 (NCI-H23 lung): 13.8 µM
TGI (NCI-H23 lung): 26.7 µM
GI50 (OVCAR-8 ovarian): 17 µM
TGI (OVCAR-8 ovarian): 44.9 µM
GI50 (SW-620 colon): 18.8 µM
TGI (SW-620 colon): 37.6 µM
GI50 (HOP-92 NSCLC): 11.8 µM
TGI (HOP-92 NSCLC): 43.6 µM
GI50 (OVCAR-3 ovarian): 8 µM
TGI (OVCAR-3 ovarian): 23.3 µM
GI50 (SF-268 CNS): 27.1 µM
TGI (SF-268 CNS): 73.9 µM
GI50 (SF-539 CNS): 16.5 µM
TGI (SF-539 CNS): 32.7 µM
GI50 (K-562 leukemia): 15.6 µM
TGI (K-562 leukemia): > 100 µM
GI50 (UACC-62 melanoma): 10.8 µM
TGI (UACC-62 melanoma): 27.9 µM
GI50 (SR leukemia): 18.3 µM
TGI (SR leukemia): 58 µM
GI50 (COLO 205 colon): 30 µM
TGI (COLO 205 colon): 68.4 µM
GI50 (NCI/ADR-RES ovarian): 15.8 µM
TGI (NCI/ADR-RES ovarian): 35.9 µM
GI50 (MCF7 breast): 31 µM
TGI (MCF7 breast): > 100 µM
GI50 (CCRF-CEM leukemia): 13.1 µM
TGI (CCRF-CEM leukemia): 51.3 µM
GI50 (A498 renal): 12.9 µM
TGI (A498 renal): 28.6 µM
GI50 (ACHN renal): 14 µM
TGI (ACHN renal): 27.8 µM
GI50 (CAKI-1 renal): 4.12 µM
TGI (CAKI-1 renal): 17.6 µM
GI50 (SK-MEL-5 melanoma): 12.5 µM
TGI (SK-MEL-5 melanoma): 25 µM
GI50 (SN12C renal): 14.3 µM
TGI (SN12C renal): 28.6 µM
GI50 (U251 CNS): 13.6 µM
TGI (U251 CNS): 26.4 µM
GI50 (SK-MEL-28 melanoma): 21.9 µM
TGI (SK-MEL-28 melanoma): 52.7 µM
GI50 (HCT-15 colon): 15.2 µM
TGI (HCT-15 colon): 30.8 µM

— PubChem BioAssay (NCI)
